Source: patent publication US7169568B2, “Method for screening molecules that exert a neurotrophic effect through activation of neurotrophin receptors” (New York University, priority 2000, dated 2007)

Tested on: hippocampal neurons
Assay: Cell death assay (LDH release), hippocampal neurons after B27 withdrawal
Format: cell-based, rat
Description: . In FIG. 6A, NGF-differentiated PC12 cells were prepared and then NGF and serum were withdrawn for 48 hours as described in the Materials and Methods section of Example 1. Upon NGF withdrawal, various concentrations of CGS 21680 (CGS) were added to the media. CON =No Addition. […] In FIG. 6B, hippocampal neurons were prepared and B27 was withdrawn for 48 hrs as described in the Materials and Methods section of Example 1. Upon B27 withdrawal, various concentrations of CGS 21680 (CGS) were added to the media. […] All LDH levels were quantitated and % cell death calculated as described in the Materials and Methods section of Example 1. All bars depict mean+SEM from three independent experiments.
Hippocampal Cell Cultures. Dissociated primary cultures of hippocampal neurons from embryonic day 17 (E17) rats were prepared from timed-pregnant Sprague-Dawley rats as described previously (Aibel et al, 1998). Fetuses were removed under sterile conditions and kept in PBS on ice for microscopic dissection of the hippocampus. The meninges were removed and the tissue was placed in Neurobasal media (Gibco BRL). The tissue was briefly minced with fine forceps and then triturated with a fire polished pasteur pipet. Cells were counted and then plated on culture wells coated with 0.01 mg/ml poly-D-lysine overnight. Hippocampal cells were maintained in Neurobasal media, containing B27 supplement and L-glutamine (0.5 mM). Experiments were conducted 7–10 days after plating.
Hippocampal neurons were maintained in Neurobasal media containing B27 supplement and 0.5 mM L-glutamine for 10 days. B27 was then removed, and adenosine agonists or BDNF (100 ng/ml) was added to the media. MK-801 (1 μM) was added to all conditions, to decrease the contribution of NMDA-mediated cell death. After 48 hrs, cell death was assessed by measurement of LDH released into media.

CCNC(=O)[C@H]1O[C@@H](n2cnc3c(N)nc(NCCc4ccc(CCC(=O)O)cc4)nc32)[C@H](O)[C@@H]1O [CGS 21680, 2-[(4-(2-carboxyethyl)phenylethyl)]aminoadenosine-5′-N-ethylcarboxamide]
Cells rescued (48 hrs after B27 withdrawal, absence of BDNF, LDH release): greater than 60% | Dose dependence of survival action (various concentrations upon B27 withdrawal): dose-dependent
